Measurements reported in patent US20240400591A1 (Jacobio Pharmaceuticals Co., Ltd., priority 2021, published 2024).
Like-named read-outs stand apart in the source and are kept apart here.

Key:
[1] = tested on: NUGC-3_P53_Luc single clonal cell line (p53 Y220C); experiment: Reporter gene assay (p53 RE luciferase); assay type: cell-based
Method: NUGC-3_P53_Luc single clonal cell line was established using pGL4.38[luc2P/p53 RE/Hygro] Vector (E365A, promega). NUGC-3_P53-Luc single clonal cells were cultured in 37° C. cell incubator before use. NUGC-3-P53-Luc cells were collected and washed twice with PBS to remove phenol red and then resuspended in medium to a proper concentration. Tested compound dilutions were transferred into 384 well assay plates (PerkinElmer). A desired number of cells was seeded into the assay plate and cultured for 6 hours at 37° C. cell incubator. Britelite plus Luciferase Assay Reagent were added into each well and the luminescence value was recorded on Envision. The percent of activity value of compounds treated wells was normalized between high control and low control. Wells containing cells and Ref-1a (10 μM) sewved as high control, and wells containing cells and same percentage of DMSO sewved as low control. Activity value (%)=(Luminescence readoutCompound treated−Luminescence readoutLow control)/(Luminescence readoutHigh control−Luminescence readoutLow control)*100%. Then the data were analyzed either by fitting a 4-parameter logistic model or by Excel to calculate EC50 values and the EC50 was the concentration at 50% Activity on the curve.

[2] = tested on: NUGC4 (P53 WT); experiment: Cell viability assay (CellTiter-Glo, 6 days), NUGC4; assay type: cell-based
Method: (§1) Cells were collected and counted. A desired number of cells was seeded into 96-well microplate and cultured in 37° C. cell incubator overnight. Compounds dissolved in cell culture medium were added into cell plate and cultured for 6 days. After balancing CellTiter-Glo reagent and cells at room temperature for 30 min, equal volume of CellTiter-Glo reagents was added to assay plate and shaken for 2 min for cell lysis. The cells were balanced at room temperature for 10 minutes and Luminescence signal was read using Envision. The percent of cell viability for compounds treated wells were normalized between High control and low control. Wells containing cell culture medium and same percentage DMSO sewved as Low control. Wells containing cells and same percentage DMSO sewved as High control. Cell viability (%)=(Luminescence readoutCompound treated−Luminescence readoutLow control)/(Luminescence readoutHigh control−Luminescence readoutLow control)*100%. Then the data were analyzed either by fitting a 4-parameter logistic model or by Excel to calculate IC50 values. And the IC50 was the concentration at 50% Cell viability on the curve.

[3] = target: T1, His-p53 Y220C (94-294) protein (Homo sapiens, UniProt P04637, Y220C); experiment: In vitro DNA binding assay (HTRF); assay type: biochemical; settings: % activation normalized to 2 μM Ref-1a high control
T1 construct: His-p53 Y220C (94-294) protein

[4] = tested on: NUGC3 (P53 Y220C); experiment: Cell viability assay (CellTiter-Glo, 6 days), NUGC3; assay type: cell-based
Method: as §1

[5] = Homo sapiens, NUGC-3, luciferase reporter, 6 hours, normalized to Ref-1a (10 μM) high control, read-out: p53(Y220C)_NUGC-3 EC50
[6] = Homo sapiens, NUGC-4, 144 h, cell viability, 6 days, CellTiter-Glo, read-out: NUGC4 (P53 WT) IC50
[7] = Homo sapiens, NUGC-3, 144 h, cell viability, 6 days, CellTiter-Glo, read-out: NUGC3 (P53 Y220C) IC50

Structure (SMILES)	EC50 [1, 5]	IC50 [2, 6]	EC50 [3]	IC50 [4, 7]	EC50 ([1]; Homo sapiens, NUGC-3, 6 h, read-out: p53(Y220C)_NUGC-3 EC50 (μM))	IC50 ([2]; Homo sapiens, NUGC-4, 144 h, read-out: NUGC4 (P53 WT) IC50 (μM))	IC50 ([4]; Homo sapiens, NUGC-3, 144 h, read-out: NUGC3 (P53 Y220C) IC50 (μM))	EC50 ([1]; luciferase reporter, 6 hours, normalized to Ref-1a (10 μM) high control, read-out: p53(Y220C)_NUGC-3 EC50)	IC50 ([2]; cell viability, 6 days, CellTiter-Glo, read-out: NUGC4 (P53 WT) IC50)	IC50 ([4]; cell viability, 6 days, CellTiter-Glo, read-out: NUGC3 (P53 Y220C) IC50)	EC50 ([1]; Homo sapiens, NUGC-3, 6 h, luciferase reporter, 6 hours, normalized to Ref-1a (10 μM) high control, read-out: p53(Y220C)_NUGC-3 EC50)
CN1CC[C@@H](Nc2cccc3c(CC(F)(F)F)c(C#CCNc4ccc(P(C)(C)=O)cc4-c4ncon4)sc23)[C@@H](F)C1 [Example 213, (4-((3-(7-(((3S,4R)-3-fluoro-1-methylpiperidin-4-yl)amino)-3-(2,2,2-trifluoroethyl)benzo[b]thiophen-2-yl)prop-2-yn-1-yl)amino)-3-(1,2,4-oxadiazol-3-yl)phenyl)dimethylphosphine oxide]	0.22 µM	9.59 µM	58 nM	0.37 µM	–	–	–	–	–	–	–
COc1cc(P(C)(C)=O)ccc1NCC#Cc1sc2c(NC3CCN(C)CC3F)cccc2c1CC#N (racemic) [Example 107, 2-(2-(3-((4-(dimethylphosphoryl)-2-methoxyphenyl)amino)prop-1-yn-1-yl)-7-(((Z)-3-fluoro-1-methylpiperidin-4-yl)amino)benzo[b]thiophen-3-yl)acetonitrile]	0.96 µM	20.6 µM	60 nM	7.25 µM	–	–	–	–	–	–	–
CN1CC[C@@H](Nc2cccc3c(CC(F)(F)F)c(C#CCNc4ccc(P(C)(C)=O)cc4C(N)=O)sc23)[C@@H](F)C1 [Example 199, 5-(dimethylphosphoryl)-2-((3-(7-(((3S,4R)-3-fluoro-1-methylpiperidin-4-yl)amino)-3-(2,2,2-trifluoroethyl)benzo[b]thiophen-2-yl)prop-2-yn-1-yl)amino)benzamide]	0.06 µM	49 µM	27 nM	0.36 µM	–	–	–	–	–	–	–
COc1cc(P(=O)(C2CC2)C2CC2)ccc1NCC#Cc1sc2c(N[C@@H]3CCN(C)C[C@@H]3F)cccc2c1CC(F)(F)F (racemic) [Example 99, dicyclopropyl(4-((3-(7-(((Z)-3-fluoro-1-methylpiperidin-4-yl)amino)-3-(2,2,2-trifluoroethyl)benzo[b]thiophen-2-yl)prop-2-yn-1-yl)amino)-3-methoxyphenyl)phosphine oxide]	–	–	87 nM	–	0.15 µM	6.58 µM	1.44 µM	–	–	–	–
CNC(=O)c1cc(OC)c(NCC#Cc2sc3c(NC4CCN(C)CC4F)cccc3c2CC(F)(F)F)cn1 (centres unmarked) [Example 60, 5-((3-(3-(2,2,2-trifluoroethyl)-7-(((Z)-3-fluoro-1-methylpiperidin-4-yl)amino)benzo[b]thiophen-2-yl)prop-2-yn-1-yl)amino)-4-methoxy-N-methylpicolinamide]	–	–	72 nM	–	–	–	–	0.47 µM	6.1 µM	1.95 µM	–
CCP(=O)(CC)c1ccc(NCC#Cc2sc3c(N[C@@H]4CCN(C)C[C@@H]4F)cccc3c2CC(F)(F)F)c(OCF)c1 (racemic) [Example 66, diethyl(4-((3-(7-(((Z)-3-fluoro-1-methylpiperidin-4-yl)amino)-3-(2,2,2-trifluoroethyl)benzo[b]thiophen-2-yl)prop-2-yn-1-yl)amino)-3-(fluoromethoxy)phenyl)phosphine oxide]	0.12 µM	10.3 µM	60 nM	0.82 µM	–	–	–	–	–	–	–
COc1cc(P(C)(C)=O)ccc1NCC#Cc1sc2c(N[C@@H]3CCN(C)C[C@@H]3F)cccc2c1CC(F)(F)F [Example 115, (4-((3-(7-(((3S,4R)-3-fluoro-1-methylpiperidin-4-yl)amino)-3-(2,2,2-trifluoroethyl)benzo[b]thiophen-2-yl)prop-2-yn-1-yl)amino)-3-methoxyphenyl)dimethylphosphine oxide]	–	8.58 µM	23 nM	0.24 µM	–	–	–	–	–	–	0.03 µM
CNC(=O)c1cc(NCC#Cc2sc3c(NC4CCN(C)CC4F)cccc3c2CC(F)(F)F)c(OC)cc1P(C)(C)=O (racemic) [Example 109, 2-dimethylphosphoryl-5-[3-[7-[((Z)-3-fluoro-1-methyl-4-piperidyl)amino]-3-(2,2,2-trifluoroethyl)benzothiophen-2-yl]prop-2-ynylamino]-4-methoxy-N-methyl-benzamide]	0.12 µM	47.7 µM	33 nM	1.19 µM	–	–	–	–	–	–	–
